Values quoted from earlier work, collected in paper PMC9481151, “Discovery of new symmetrical and asymmetrical nitrile-containing 1,4-dihydropyridine derivatives as dual kinases and P-glycoprotein inhibitors: synthesis, in vitro assays, and in silico studies” (Journal of Enzyme Inhibition and Medicinal Chemistry, 2022).

Key:
Set-up in all cases: method as in PMID 34146919
Settings in all cases: introduction; cited from earlier work
BTK = BTK (Homo sapiens, UniProt Q06187)
HER-2 = HER-2 (Homo sapiens, UniProt P04626)
EGFR = EGFR (Homo sapiens, UniProt P00533)
Sequence of EGFR (P00533 25-1210): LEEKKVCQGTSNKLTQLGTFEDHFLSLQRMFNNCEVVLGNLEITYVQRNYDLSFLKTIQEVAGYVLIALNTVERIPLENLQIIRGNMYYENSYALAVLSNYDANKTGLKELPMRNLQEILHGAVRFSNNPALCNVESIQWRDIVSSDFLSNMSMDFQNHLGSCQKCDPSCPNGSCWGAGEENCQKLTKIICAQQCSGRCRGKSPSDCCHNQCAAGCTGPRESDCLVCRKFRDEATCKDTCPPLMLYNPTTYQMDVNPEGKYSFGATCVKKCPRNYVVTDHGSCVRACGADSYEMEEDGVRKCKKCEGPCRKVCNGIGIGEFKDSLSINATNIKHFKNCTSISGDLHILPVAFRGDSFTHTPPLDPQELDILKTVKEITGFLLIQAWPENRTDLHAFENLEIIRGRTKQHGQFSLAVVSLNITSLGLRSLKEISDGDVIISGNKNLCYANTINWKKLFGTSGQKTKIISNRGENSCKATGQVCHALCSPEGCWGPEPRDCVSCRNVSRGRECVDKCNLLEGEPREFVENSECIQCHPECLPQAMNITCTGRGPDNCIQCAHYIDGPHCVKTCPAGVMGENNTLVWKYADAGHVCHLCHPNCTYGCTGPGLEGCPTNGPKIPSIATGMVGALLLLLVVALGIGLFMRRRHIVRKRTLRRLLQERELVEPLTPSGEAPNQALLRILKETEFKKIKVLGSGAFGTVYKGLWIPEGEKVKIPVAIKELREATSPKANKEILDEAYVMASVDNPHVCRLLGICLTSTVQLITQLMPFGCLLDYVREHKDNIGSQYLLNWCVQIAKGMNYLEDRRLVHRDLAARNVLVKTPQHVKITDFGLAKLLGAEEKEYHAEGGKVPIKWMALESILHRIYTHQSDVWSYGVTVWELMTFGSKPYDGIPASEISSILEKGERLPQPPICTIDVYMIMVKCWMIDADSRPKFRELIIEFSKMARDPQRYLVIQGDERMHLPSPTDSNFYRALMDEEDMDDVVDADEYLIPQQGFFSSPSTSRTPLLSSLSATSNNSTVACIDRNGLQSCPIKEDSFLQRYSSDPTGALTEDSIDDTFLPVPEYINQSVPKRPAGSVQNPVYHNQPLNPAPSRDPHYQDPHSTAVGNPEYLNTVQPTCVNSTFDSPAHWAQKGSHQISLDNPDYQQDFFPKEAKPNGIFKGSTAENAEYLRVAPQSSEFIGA

Sequence of BTK (Q06187 whole entry): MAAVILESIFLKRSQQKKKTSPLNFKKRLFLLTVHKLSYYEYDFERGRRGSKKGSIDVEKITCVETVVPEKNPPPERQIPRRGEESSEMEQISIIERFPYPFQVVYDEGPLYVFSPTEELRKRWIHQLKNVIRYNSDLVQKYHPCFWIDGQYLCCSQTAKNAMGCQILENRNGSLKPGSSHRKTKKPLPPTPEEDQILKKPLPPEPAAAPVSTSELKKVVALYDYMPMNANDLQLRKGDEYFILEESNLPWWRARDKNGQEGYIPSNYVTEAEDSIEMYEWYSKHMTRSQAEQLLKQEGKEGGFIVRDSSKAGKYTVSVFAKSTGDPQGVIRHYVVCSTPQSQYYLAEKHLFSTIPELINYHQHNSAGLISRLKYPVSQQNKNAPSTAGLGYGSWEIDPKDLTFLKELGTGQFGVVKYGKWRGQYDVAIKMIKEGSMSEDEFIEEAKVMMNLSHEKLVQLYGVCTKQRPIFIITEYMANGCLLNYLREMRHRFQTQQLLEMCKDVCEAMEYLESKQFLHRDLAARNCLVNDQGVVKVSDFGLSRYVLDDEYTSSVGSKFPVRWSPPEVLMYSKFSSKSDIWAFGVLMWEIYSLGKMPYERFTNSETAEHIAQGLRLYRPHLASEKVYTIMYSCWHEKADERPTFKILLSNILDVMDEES
Sequence of HER-2 (P04626 23-1255): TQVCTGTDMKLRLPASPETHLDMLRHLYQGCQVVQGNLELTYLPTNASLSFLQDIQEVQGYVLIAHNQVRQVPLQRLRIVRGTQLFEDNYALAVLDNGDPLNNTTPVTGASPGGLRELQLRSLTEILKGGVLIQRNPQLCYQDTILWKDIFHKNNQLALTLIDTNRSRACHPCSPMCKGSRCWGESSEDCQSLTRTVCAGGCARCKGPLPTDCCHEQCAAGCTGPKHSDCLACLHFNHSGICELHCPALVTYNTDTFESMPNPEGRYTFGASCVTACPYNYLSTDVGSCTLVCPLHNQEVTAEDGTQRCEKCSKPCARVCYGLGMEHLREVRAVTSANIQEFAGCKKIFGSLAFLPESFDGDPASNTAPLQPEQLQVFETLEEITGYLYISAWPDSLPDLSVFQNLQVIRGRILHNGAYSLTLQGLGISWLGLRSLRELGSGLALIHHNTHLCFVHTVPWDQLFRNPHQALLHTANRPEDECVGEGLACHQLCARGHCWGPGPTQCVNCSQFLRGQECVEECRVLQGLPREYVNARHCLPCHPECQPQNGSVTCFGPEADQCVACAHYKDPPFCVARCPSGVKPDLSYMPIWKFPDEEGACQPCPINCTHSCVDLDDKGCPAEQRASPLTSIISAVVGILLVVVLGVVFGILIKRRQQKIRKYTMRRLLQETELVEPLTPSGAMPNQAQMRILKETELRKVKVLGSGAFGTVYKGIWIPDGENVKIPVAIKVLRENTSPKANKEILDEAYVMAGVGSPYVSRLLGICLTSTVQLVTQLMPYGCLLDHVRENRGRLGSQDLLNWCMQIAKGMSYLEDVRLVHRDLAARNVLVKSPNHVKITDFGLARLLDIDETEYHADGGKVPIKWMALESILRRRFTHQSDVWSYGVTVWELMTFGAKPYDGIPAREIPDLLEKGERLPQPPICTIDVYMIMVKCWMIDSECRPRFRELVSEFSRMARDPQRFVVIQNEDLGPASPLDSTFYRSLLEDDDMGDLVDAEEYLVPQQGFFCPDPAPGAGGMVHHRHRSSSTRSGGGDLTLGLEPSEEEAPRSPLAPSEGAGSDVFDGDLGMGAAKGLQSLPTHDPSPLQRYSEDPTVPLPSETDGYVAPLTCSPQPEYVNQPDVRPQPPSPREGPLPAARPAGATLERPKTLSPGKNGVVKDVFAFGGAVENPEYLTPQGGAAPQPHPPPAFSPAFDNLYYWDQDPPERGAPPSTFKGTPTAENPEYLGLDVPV

## CCOC(=O)C1=C(C)NC(C)=C(C(=O)OCC)C1c1ccc2c(c1)Cc1ccccc1-2 [Compound II]
BTK
  IC50: 68.8 nM
HER-2
  IC50: 84.5 nM
EGFR
  IC50: 71.8 nM
